Measurements: patent US5393743A, “Erythromycin derivatives” (Abbott Laboratories, priority 1993, dated 1995)
Values after ≈ are worked out from the molar mass of the structure shown. Like-named read-outs stand apart in the source and are kept apart here.

How the values were obtained:
[1] = test system: Acinetobacter calcoaceticus CMX 669; assay: In vitro antibacterial activity, agar dilution MIC; type: cell-based; settings: CMX669
Protocol: (§1) Representative compounds of the present invention were assayed in vitro for antibacterial activity as follows: Twelve petri dishes containing successive aqueous dilutions of the test compound mixed with 10 mL of sterilized Brain Heart Infusion (BHI) agar (Difco 0418-01-5) were prepared. Each plate was inoculated with 1:100 (or 1:10 for slow-growing strains, such as Micrococcus and Streptococcus) dilutions of up to 32 different microorganisms, using a Steers replicator block. The inoculated plates were incubated 35°-37° C. for 20 to 24 hours. In addition, a control plate, using BHI agar containing no test compound, was prepared and incubated at the beginning and end of each test.
(§2) An additional plate containing a compound having known susceptibility patterns for the organisms being tested and belonging to the same antibiotic class as the test compound was also prepared and incubated as a further control, as well as to provide test-to-test comparability. Erythromycin A was used for this purpose.
(§3) After incubation, each disk was read. The minimum inhibitory concentration (MIC) was defined as the lowest concentration of drug yielding no growth, a slight haze, or sparsely isolated colonies on the inoculum spot as compared to the growth control.

[2] = test system: Enterobacter aerogenes ATCC 13048; assay: In vitro antibacterial activity, agar dilution MIC; type: cell-based; settings: Klebsiella aerogenes, ATCC13048; Enterobacter aerogenes ATCC 13048; BHI agar, 35°-37° C., 20 to 24 hours; read-out: MIC
Protocol: as §1, §2, §3

[3] = test system: Enterococcus faecium ATCC 8043; assay: In vitro antibacterial activity, agar dilution MIC; type: cell-based; settings: ATCC8043
Protocol: as §1, §2, §3

Escherichia coli DC-2 = assay: In vitro antibacterial activity, agar dilution MIC; type: cell-based; settings: DC2; Escherichia coli DC-2; BHI agar, 35°-37° C., 20 to 24 hours; read-out: MIC
Protocol: as §1, §2, §3

Escherichia coli H560 = assay: In vitro antibacterial activity, agar dilution MIC; type: cell-based; settings: Escherichia coli H560; BHI agar, 35°-37° C., 20 to 24 hours; read-out: MIC
Protocol: as §1, §2, §3

Escherichia coli Juhl = assay: In vitro antibacterial activity, agar dilution MIC; type: cell-based; settings: Escherichia coli Juhl; BHI agar, 35°-37° C., 20 to 24 hours; read-out: MIC
Protocol: as §1, §2, §3

Escherichia coli KNK 437 = assay: In vitro antibacterial activity, agar dilution MIC; type: cell-based; settings: KNK437; Escherichia coli KNK 437; BHI agar, 35°-37° C., 20 to 24 hours; read-out: MIC
Protocol: as §1, §2, §3

[4] = test system: Klebsiella pneumoniae ATCC 8045; assay: In vitro antibacterial activity, agar dilution MIC; type: cell-based; settings: ATCC8045; Klebsiella pneumoniae ATCC 8045; BHI agar, 35°-37° C., 20 to 24 hours; read-out: MIC
Protocol: as §1, §2, §3

Micrococcus luteus 4698 = assay: In vitro antibacterial activity, agar dilution MIC; type: cell-based
Protocol: as §1, §2, §3

[5] = test system: Providencia stuartii CMX 640; assay: In vitro antibacterial activity, agar dilution MIC; type: cell-based; settings: CMX640; Providencia stuartii CMX 640; BHI agar, 35°-37° C., 20 to 24 hours; read-out: MIC
Protocol: as §1, §2, §3

[6] = test system: Pseudomonas aeruginosa 2862; assay: In vitro antibacterial activity, agar dilution MIC; type: cell-based; settings: Pseudomonas aeruginosa 2862; BHI agar, 35°-37° C., 20 to 24 hours; read-out: MIC
Protocol: as §1, §2, §3

[7] = test system: Pseudomonas aeruginosa 5263; assay: In vitro antibacterial activity, agar dilution MIC; type: cell-based; settings: Pseudomonas aeruginosa 5263; BHI agar, 35°-37° C., 20 to 24 hours; read-out: MIC
Protocol: as §1, §2, §3

[8] = test system: Pseudomonas aeruginosa A5007; assay: In vitro antibacterial activity, agar dilution MIC; type: cell-based; settings: Pseudomonas aeruginosa A5007; BHI agar, 35°-37° C., 20 to 24 hours; read-out: MIC
Protocol: as §1, §2, §3

[9] = test system: Pseudomonas aeruginosa BMH10; assay: In vitro antibacterial activity, agar dilution MIC; type: cell-based; settings: Pseudomonas aeruginosa BMH10; BHI agar, 35°-37° C., 20 to 24 hours; read-out: MIC
Protocol: as §1, §2, §3

[10] = test system: Pseudomonas aeruginosa K799/WT; assay: In vitro antibacterial activity, agar dilution MIC; type: cell-based; settings: Pseudomonas aeruginosa K799/WT; BHI agar, 35°-37° C., 20 to 24 hours; read-out: MIC
Protocol: as §1, §2, §3

Pseudomonas cepacia 2961 = assay: In vitro antibacterial activity, agar dilution MIC; type: cell-based; settings: Burkholderia cepacia; Pseudomonas cepacia 2961; BHI agar, 35°-37° C., 20 to 24 hours; read-out: MIC
Protocol: as §1, §2, §3

[11] = test system: Staphylococcus aureus 1775 Cipro R; assay: In vitro antibacterial activity, agar dilution MIC; type: cell-based; settings: 1775CIPROR
Protocol: as §1, §2, §3

[12] = test system: Staphylococcus aureus A5177; assay: In vitro antibacterial activity, agar dilution MIC; type: cell-based; settings: Staphylococcus aureus A5177; BHI agar, 35°-37° C., 20 to 24 hours; read-out: MIC
Protocol: as §1, §2, §3

[13] = test system: Staphylococcus aureus A5278; assay: In vitro antibacterial activity, agar dilution MIC; type: cell-based
Protocol: as §1, §2, §3

[14] = test system: Staphylococcus aureus ATCC 6538P; assay: In vitro antibacterial activity, agar dilution MIC; type: cell-based; settings: ATCC6538P
Protocol: as §1, §2, §3

[15] = test system: Staphylococcus aureus CMX 553; assay: In vitro antibacterial activity, agar dilution MIC; type: cell-based; settings: CMX553
Protocol: as §1, §2, §3

[16] = test system: Staphylococcus aureus CMX 642a; assay: In vitro antibacterial activity, agar dilution MIC; type: cell-based; settings: CMX642A
Protocol: as §1, §2, §3

[17] = test system: Staphylococcus aureus NCTC 10649; assay: In vitro antibacterial activity, agar dilution MIC; type: cell-based; settings: NCTC10649
Protocol: as §1, §2, §3

[18] = test system: Staphylococcus epidermidis 3519; assay: In vitro antibacterial activity, agar dilution MIC; type: cell-based
Protocol: as §1, §2, §3

[19] = test system: Streptococcus agalactiae 508; assay: In vitro antibacterial activity, agar dilution MIC; type: cell-based
Protocol: as §1, §2, §3

[20] = test system: Streptococcus bovis A5169; assay: In vitro antibacterial activity, agar dilution MIC; type: cell-based; settings: Streptococcus equinus, A5169
Protocol: as §1, §2, §3

[21] = test system: Streptococcus pyogenes 2548 induc; assay: In vitro antibacterial activity, agar dilution MIC; type: cell-based
Protocol: as §1, §2, §3

[22] = test system: Streptococcus pyogenes 930 const; assay: In vitro antibacterial activity, agar dilution MIC; type: cell-based; settings: Streptococcus pyogenes 930 const; BHI agar, 35°-37° C., 20 to 24 hours; read-out: MIC
Protocol: as §1, §2, §3

[23] = test system: Streptococcus pyogenes EES61; assay: In vitro antibacterial activity, agar dilution MIC; type: cell-based
Protocol: as §1, §2, §3

Escherichia coli SS = assay: microbe, parasite or virus in culture; settings: Escherichia coli
Protocol: as §1, §2, §3

[24] = test system: Micrococcus luteus ATCC 9341; assay: microbe, parasite or virus in culture; settings: Micrococcus luteus, ATCC9341
Protocol: as §1, §2, §3

[25] = test system: Pseudomonas aeruginosa K799/61; assay: In vitro antibacterial activity, agar dilution MIC; type: cell-based; settings: BHI agar, 35°-37° C., 20 to 24 hours, read-out: MIC
Candida albicans CCH 442 = assay: microbe, parasite or virus in culture; settings: CCH442
Protocol: as §1, §2, §3

[26] = test system: Nocardia asteroides ATCC 9970; assay: microbe, parasite or virus in culture; settings: ATCC9970
Protocol: as §1, §2, §3

[27] = test system: Mycobacterium smegmatis ATCC 114; assay: In vitro antibacterial activity, agar dilution MIC; type: cell-based; settings: Mycolicibacterium smegmatis, ATCC114, BHI agar, 35°-37° C., 20 to 24 hours

SMILES	MIC [2] [µg/mL]	MIC (Escherichia coli DC-2) [µg/mL]	MIC (Escherichia coli H560) [µg/mL]	MIC (Escherichia coli Juhl) [µg/mL]	MIC (Escherichia coli KNK 437) [µg/mL]	MIC [4] [µg/mL]	MIC [5] [µg/mL]	MIC [6] [µg/mL]	MIC [7] [µg/mL]	MIC [8] [µg/mL]	MIC [9] [µg/mL]	MIC [10] [µg/mL]	MIC (Pseudomonas cepacia 2961) [µg/mL]	MIC [12] [µg/mL]	MIC [20] [µg/mL]	MIC [22] [µg/mL]	MIC (Escherichia coli SS) [µg/mL]	MIC [24] [µg/mL]	MIC [25] [µg/mL]	other results
CC[C@H]1OC(=O)[C@H](C)[C@@H](O[C@H]2C[C@](C)(F)[C@@H](OC)[C@H](C)O2)[C@H](C)[C@@H](O[C@@H]2O[C@H](C)C[C@H](N(C)C)[C@H]2O)[C@@]2(C)CC(C)=C(O2)[C@H](C)[C@H]2OC(=O)O[C@@]21C [Example 17, (3"S)-8,9-Anhydro-11-O,12-O-carbonyl-3"-fluoro-3"-desmethoxy-4"-O-methylerythromycin A-6,9-hemiketal]	> 100	> 100	> 100	> 100	> 100	> 100	> 100	> 100	> 100	> 100	> 100	> 100	> 100	12.5 (≈ 16.8 µM)	0.1 (≈ 0.134 µM)	12.5 (≈ 16.8 µM)	3.1 (≈ 4.17 µM)	0.1 (≈ 0.134 µM)	50 (≈ 67.2 µM)	MIC ([1]; Acinetobacter calcoaceticus): 25 µg/mL (≈ 33.6 µM); MIC ([3]; Enterococcus faecium ATCC 8043, BHI agar, 35°-37° C., 20 to 24 hours, read-out: MIC): 0.39 µg/mL (≈ 0.524 µM); MIC (Micrococcus luteus 4698; Micrococcus luteus 4698, BHI agar, 35°-37° C., 20 to 24 hours, read-out: MIC): 1.56 µg/mL (≈ 2.1 µM); MIC ([11]; Staphylococcus aureus): 25 µg/mL (≈ 33.6 µM); MIC ([13]; Staphylococcus aureus, A5278): 25 µg/mL (≈ 33.6 µM); MIC ([14]; Staphylococcus aureus ATCC 6538P, BHI agar, 35°-37° C., 20 to 24 hours, read-out: MIC): 1.56 µg/mL (≈ 2.1 µM); MIC ([15]; Staphylococcus aureus CMX 553, BHI agar, 35°-37° C., 20 to 24 hours, read-out: MIC): 1.56 µg/mL (≈ 2.1 µM); MIC ([16]; Staphylococcus aureus CMX 642a, BHI agar, 35°-37° C., 20 to 24 hours, read-out: MIC): 1.56 µg/mL (≈ 2.1 µM); MIC ([17]; Staphylococcus aureus NCTC 10649, BHI agar, 35°-37° C., 20 to 24 hours, read-out: MIC): 1.56 µg/mL (≈ 2.1 µM); MIC ([18]; Staphylococcus epidermidis 3519, BHI agar, 35°-37° C., 20 to 24 hours, read-out: MIC): 1.56 µg/mL (≈ 2.1 µM); MIC ([19]; Streptococcus agalactiae 508, BHI agar, 35°-37° C., 20 to 24 hours, read-out: MIC): 0.2 µg/mL (≈ 0.269 µM); MIC ([21]; Streptococcus pyogenes 2548 induc, BHI agar, 35°-37° C., 20 to 24 hours, read-out: MIC): 1.56 µg/mL (≈ 2.1 µM); MIC ([23]; Streptococcus pyogenes EES61, BHI agar, 35°-37° C., 20 to 24 hours, read-out: MIC): 0.2 µg/mL (≈ 0.269 µM)
CC[C@H]1OC(=O)[C@H](C)[C@@H](O[C@H]2C[C@](C)(F)[C@@H](OC)[C@H](C)O2)[C@H](C)[C@@H](O[C@@H]2O[C@H](C)C[C@H](N(C)C)[C@H]2O)[C@](C)(O)C[C@@H](C)C(=O)[C@H](C)[C@@H](O)[C@]1(C)O [Example 9, (3"s)--3"-Desmethoxy-3"-fluoro-4"-O-methylerythromycin A]	> 100	> 100	> 100	> 100	> 100	> 100	> 100	> 100	> 100	> 100	> 100	> 100	> 100	12.5 (≈ 17 µM)	0.2 (≈ 0.272 µM)	> 100	1.56 (≈ 2.12 µM)	0.2 (≈ 0.272 µM)	50 (≈ 67.9 µM)	MIC ([1]; Acinetobacter calcoaceticus CMX 669, BHI agar, 35°-37° C., 20 to 24 hours, read-out: MIC): > 100 µg/mL; MIC ([3]; Enterococcus faecium): 0.39 µg/mL (≈ 0.53 µM); MIC (Micrococcus luteus 4698; Micrococcus luteus, 4698): 0.39 µg/mL (≈ 0.53 µM); MIC ([11]; Staphylococcus aureus 1775 Cipro R, BHI agar, 35°-37° C., 20 to 24 hours, read-out: MIC): > 100 µg/mL; MIC ([13]; Staphylococcus aureus A5278, BHI agar, 35°-37° C., 20 to 24 hours, read-out: MIC): > 100 µg/mL; MIC ([14]; Staphylococcus aureus): 1.56 µg/mL (≈ 2.12 µM); MIC ([15]; Staphylococcus aureus): 1.56 µg/mL (≈ 2.12 µM); MIC ([16]; Staphylococcus aureus): 1.56 µg/mL (≈ 2.12 µM); MIC ([17]; Staphylococcus aureus): 1.56 µg/mL (≈ 2.12 µM); MIC ([18]; Staphylococcus epidermidis, 3519): 1.56 µg/mL (≈ 2.12 µM); MIC ([19]; Streptococcus agalactiae, 508): 0.39 µg/mL (≈ 0.53 µM); MIC ([21]; Streptococcus pyogenes, 2548INDUC): 3.1 µg/mL (≈ 4.21 µM); MIC ([23]; Streptococcus pyogenes, EES61): 0.39 µg/mL (≈ 0.53 µM); MIC (Candida albicans CCH 442): > 100 µg/mL; MIC [26]: 0.2 µg/mL (≈ 0.272 µM); MIC [27]: 12.5 µg/mL (≈ 17 µM)
